Laboratory results taken from BindingDB's records for doi:10.3109/14756366.2011.572879 (Ataturk University, 2012).
Structures can show the parent of a compound that is named as a salt.

Target: T1, Glutathione reductase, mitochondrial (Homo sapiens, UniProt P00390)
T1 sequence (P00390 whole entry): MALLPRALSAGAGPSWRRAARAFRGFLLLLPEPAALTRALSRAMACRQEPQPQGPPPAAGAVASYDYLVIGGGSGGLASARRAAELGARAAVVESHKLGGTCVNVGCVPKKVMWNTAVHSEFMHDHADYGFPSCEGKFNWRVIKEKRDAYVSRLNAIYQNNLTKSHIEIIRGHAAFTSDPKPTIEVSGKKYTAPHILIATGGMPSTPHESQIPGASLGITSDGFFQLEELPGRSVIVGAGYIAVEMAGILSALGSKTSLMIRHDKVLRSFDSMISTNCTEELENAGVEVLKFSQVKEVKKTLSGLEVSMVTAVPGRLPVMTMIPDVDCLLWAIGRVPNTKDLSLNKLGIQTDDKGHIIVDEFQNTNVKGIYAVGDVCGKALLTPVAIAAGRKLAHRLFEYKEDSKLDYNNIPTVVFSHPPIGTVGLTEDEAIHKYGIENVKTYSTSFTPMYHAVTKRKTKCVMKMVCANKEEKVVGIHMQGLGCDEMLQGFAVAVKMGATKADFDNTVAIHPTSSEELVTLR
Test: Activity Assay
Conditions: pH 8; 25 °C
Method: The assay system contained 40 mM Tris-HCl buffer, pH 8.0, including 0.8 mM EDTA, 1 mM GSSG and 0.1 mM NADPH in 1 mL total reaction volume. The activity was measured by monitoring the decrease in absorbance at 340 nm due to the oxidationof NADPH at 25°C. One enzyme unit is defined as the oxidation of […] NADPH per min under the assay conditions.

SMILES	IC50 [µM]	Ki [µM]
OC(CNc1ccccn1)c1ccccc1 (stereo not given) [Phenyramidol-HCl]	990	434
CN1CCC(=C2c3ccccc3CC(=O)c3sccc32)CC1 [(Z)-2-butenedioate;10-(1-methyl-4-piperidinylidene)-5H-benzo[1,2]cyclohepta[3,4-b]thiophen-4-one]	12	0.8
O=C(O)CN(CCN(CC(=O)O)CC(=O)O)CCN(CC(=O)O)CC(=O)O [Gadopentetic acid]		28800
